{
  "source": "patent US20230174671A1",
  "about": "“COMPOSITIONS AND METHODS FOR TREATING VIRAL INFECTIONS” (BIOVISTA, INC., priority 2020, published 2023)",
  "origin": "cited, not measured here",
  "key": {"SARS-CoV": {"test_system": "SARS-CoV", "settings": "HeLa cells expressing TMPRSS2; Kawase et al, 2012"}, "[1]": {"test_system": "human coronavirus NL63 (HCoV-NL63)", "settings": "HeLa cells expressing TMPRSS2; Kawase et al, 2012"}},
  "note": "Counter-ions that a name gives are not always drawn.",
  "data": [
    {"smiles": "CN(C)C(=O)COC(=O)Cc1ccc(OC(=O)c2ccc(NC(=N)N)cc2)cc1", "note": "[camostat mesylate]", "values": [
      {"measurement": "block of infection by SARS-CoV", "setting": "SARS-CoV", "value": "partially block infection"},
      {"measurement": "block of infection by human coronavirus NL63 (HCoV-NL63)", "setting": "[1]", "value": "partially block infection"}
    ]}
  ]
}
